Results: US20140121216A1, “INDOLEAMINE DERIVATIVES FOR THE TREATMENT OF CENTRAL NERVOUS SYSTEM DISEASES” (Adamed Sp. z o.o., priority 2011, published 2014)

System: C57BL/6J mice
Test: Tail suspension test in C57BL/6J mice
Type: in vivo
Method: Within 24 h prior to testing, animals were habituated to experimental conditions. For this purpose mice in home cages were transferred to the experimental room for 15 min., while maintaining the lighting and the “white noise” characteristic for the experiment.
The testing procedure was performed on male C57BL/6J mice and based on a method of Steru et al. (The tail suspension test: a new method for screening antidepressants in mice, Psychopharmacology 85, 367-370, 1985). An automated device (Kinder Scientific) was used. After 1 h of adaptation in the experimental room with low light, the mice received the test compound intraperitoneally (at least 3 selected doses).
After a specified time after administration of the test compound mice were suspended by the tail with tape to an aluminum hook connected to a strain gauge. Mice were positioned such that the base of their tail was aligned with the bottom of the hook. […] A strain gauge connected to computer software detected any movements by the mouse in order to record the number of times (events) each subject enters into an escape behavior (struggling episodes), the duration of the event, and the average strength of each event during a 6-min test session. The following settings were used in all experiments: threshold 0.20 Newtons, off delay 30 msec.

What does the source list for `O=C1CCc2ccc(OCCCCN3CCN(c4cccc5c4ccn5S(=O)(=O)c4ccccc4)CC3)cc2N1` [Compound 24, 7-(4-(4-(1-(Phenylsulphonyl)-1H-indol-4-yl)piperazin-1-yl)butoxy)-3,4-dihydroquinolin-2(1H)-one]?
MED (minimum effective dose), tail suspension test (C57BL/6J mice, i.p.): 1.25 mg/kg; activity in words, tail suspension test (mice): active
